Results reported in US10221167B2, “Hydroxyalkylamine- and hydroxycycloalkylamine-substituted diamine-arylsulfonamide compounds with selective activity in voltage-gated sodium channels” (Merck Sharp & Dohme Corp., priority 2015, dated 2019).

Legend:
[1] = target: T1, human Nav1.7 channels stably expressed in HEK 293 cells (Homo sapiens, UniProt Q15858); assay: IonWorks Quattro automated patch-clamp, state-dependent inhibition of Nav1.7; type: cell-based; settings: inactivated state block, double-pulse protocol, holding -100 mV, read-out: potency for the Nav 1.7 sodium ion channel (as measured by IonWorks)
T1 construct: expressed in transfected cells
Method: (§1) Compounds were tested on human Nav1.7 and Nav1.5 channels stably expressed in HEK 293 cells. […] Cells were sealed on a planar substrate using the Population Patch Plate (PPC) technology. Electrical access was obtained using both nystatin and amphotericin. A double-pulse protocol was used for the determination of IC50 values for inactivated state block. Nav1.7 and Nav1.5 expressing cells were voltage clamped at −100 mV and −110 mV, respectively. A depolarizing prepulse to −10 mV (Nav1.7) or −30 mV (Nav1.5) for 1000 ms followed by a 10 ms repolarization to −100 mV (Nav1.7) or −110 mV (Nav1.5) was given to generate fractional channel inactivation of ˜50%, followed by a 10 ms test pulse to −10 mV (Nav1.7) or −30 mV (Nav1.5) to measure peak current in control conditions and after compound addition. The following recording solutions were used (mM). External: 150 NaCl, 2 CaCl2, 5 KCl, 1 Mg Cl2, 10 HEPES, 12 Dextrose; internal: 120 CsF, 30 CsCl, 10 EGTA, 5 HEPES, 5 NaF, 2 MgCl2.
(§2) For all electrophysiology experiments, offline analysis was used to determine percent inhibition as a function of drug concentration. IC50 values were determined by fitting to the Hill equation.
(§3) The various compounds in Examples 1 through 4 and Tables 1 through 3 exemplified above were assayed for activity and selectivity using the foregoing IonWorks® technique. The results are reported in the following paragraph in a format expressing the identification of the compound with reference Example and compound (e.g. Ex 1-1 is Example 1, compound 1) followed by the observed potency in nM and the ratio of Nav1.7 potency:Nav 1.5 potency as described here. […]

[2] = target: T2, human Nav1.5 channels stably expressed in HEK 293 cells (Homo sapiens, UniProt Q14524); assay: IonWorks Quattro automated patch-clamp, Nav1.5 (selectivity ratio versus Nav1.7); type: cell-based; settings: selectivity for Nav1.7 over Nav1.5, inactivated state block
T2 construct: expressed in transfected cells
Method: as §1, §2, §3

T1 sequence (Q15858 whole entry): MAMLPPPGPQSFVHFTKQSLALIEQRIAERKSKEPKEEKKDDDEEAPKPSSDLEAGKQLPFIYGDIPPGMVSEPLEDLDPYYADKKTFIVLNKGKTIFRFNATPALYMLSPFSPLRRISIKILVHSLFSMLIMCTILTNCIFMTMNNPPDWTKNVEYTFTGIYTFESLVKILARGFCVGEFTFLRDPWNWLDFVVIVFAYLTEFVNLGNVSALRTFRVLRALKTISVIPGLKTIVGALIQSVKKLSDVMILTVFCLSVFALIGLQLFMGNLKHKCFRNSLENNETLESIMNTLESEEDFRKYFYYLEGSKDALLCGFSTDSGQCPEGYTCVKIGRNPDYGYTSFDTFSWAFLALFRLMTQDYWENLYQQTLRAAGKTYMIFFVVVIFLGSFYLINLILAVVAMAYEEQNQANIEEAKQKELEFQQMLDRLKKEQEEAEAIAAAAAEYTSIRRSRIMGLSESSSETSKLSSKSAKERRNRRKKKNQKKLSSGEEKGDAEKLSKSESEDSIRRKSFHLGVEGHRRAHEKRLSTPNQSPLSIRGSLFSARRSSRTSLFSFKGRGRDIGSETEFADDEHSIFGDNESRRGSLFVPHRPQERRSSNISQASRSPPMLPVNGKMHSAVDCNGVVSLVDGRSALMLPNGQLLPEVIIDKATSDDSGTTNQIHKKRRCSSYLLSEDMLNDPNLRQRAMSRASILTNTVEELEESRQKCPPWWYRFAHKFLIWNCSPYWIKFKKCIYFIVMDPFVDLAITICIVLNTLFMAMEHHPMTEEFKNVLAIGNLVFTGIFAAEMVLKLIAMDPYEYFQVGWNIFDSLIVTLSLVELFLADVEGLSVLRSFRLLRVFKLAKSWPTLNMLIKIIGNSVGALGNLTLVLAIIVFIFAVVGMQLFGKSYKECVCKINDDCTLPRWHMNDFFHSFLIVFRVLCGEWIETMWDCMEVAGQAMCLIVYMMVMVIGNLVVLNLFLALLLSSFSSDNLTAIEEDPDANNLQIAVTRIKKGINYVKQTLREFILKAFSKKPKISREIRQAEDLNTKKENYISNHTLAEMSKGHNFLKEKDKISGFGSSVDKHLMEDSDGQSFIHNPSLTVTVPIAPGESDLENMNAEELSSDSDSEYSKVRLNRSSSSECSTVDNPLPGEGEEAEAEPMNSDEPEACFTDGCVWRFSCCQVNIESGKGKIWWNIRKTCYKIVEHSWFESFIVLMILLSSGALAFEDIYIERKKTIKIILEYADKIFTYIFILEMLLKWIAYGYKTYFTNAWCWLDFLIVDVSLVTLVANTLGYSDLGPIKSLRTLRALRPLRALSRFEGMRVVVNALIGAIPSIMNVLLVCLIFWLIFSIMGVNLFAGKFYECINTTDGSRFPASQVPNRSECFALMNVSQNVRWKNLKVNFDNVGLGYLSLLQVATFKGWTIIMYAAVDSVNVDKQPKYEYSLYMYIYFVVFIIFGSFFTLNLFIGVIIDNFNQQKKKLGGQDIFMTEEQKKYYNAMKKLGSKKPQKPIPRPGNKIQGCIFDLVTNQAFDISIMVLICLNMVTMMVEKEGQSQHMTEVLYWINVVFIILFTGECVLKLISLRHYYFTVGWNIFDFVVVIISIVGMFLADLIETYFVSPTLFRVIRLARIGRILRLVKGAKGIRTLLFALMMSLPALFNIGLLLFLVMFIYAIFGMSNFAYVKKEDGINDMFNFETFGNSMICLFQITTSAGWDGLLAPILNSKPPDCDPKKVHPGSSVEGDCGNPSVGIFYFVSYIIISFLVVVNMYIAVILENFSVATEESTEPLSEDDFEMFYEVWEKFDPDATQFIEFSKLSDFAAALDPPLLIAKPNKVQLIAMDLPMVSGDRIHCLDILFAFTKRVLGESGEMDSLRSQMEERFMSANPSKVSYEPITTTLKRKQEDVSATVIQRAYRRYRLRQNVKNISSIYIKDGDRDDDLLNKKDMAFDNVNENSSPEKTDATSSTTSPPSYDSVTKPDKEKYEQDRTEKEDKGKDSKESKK
T2 sequence (Q14524 whole entry): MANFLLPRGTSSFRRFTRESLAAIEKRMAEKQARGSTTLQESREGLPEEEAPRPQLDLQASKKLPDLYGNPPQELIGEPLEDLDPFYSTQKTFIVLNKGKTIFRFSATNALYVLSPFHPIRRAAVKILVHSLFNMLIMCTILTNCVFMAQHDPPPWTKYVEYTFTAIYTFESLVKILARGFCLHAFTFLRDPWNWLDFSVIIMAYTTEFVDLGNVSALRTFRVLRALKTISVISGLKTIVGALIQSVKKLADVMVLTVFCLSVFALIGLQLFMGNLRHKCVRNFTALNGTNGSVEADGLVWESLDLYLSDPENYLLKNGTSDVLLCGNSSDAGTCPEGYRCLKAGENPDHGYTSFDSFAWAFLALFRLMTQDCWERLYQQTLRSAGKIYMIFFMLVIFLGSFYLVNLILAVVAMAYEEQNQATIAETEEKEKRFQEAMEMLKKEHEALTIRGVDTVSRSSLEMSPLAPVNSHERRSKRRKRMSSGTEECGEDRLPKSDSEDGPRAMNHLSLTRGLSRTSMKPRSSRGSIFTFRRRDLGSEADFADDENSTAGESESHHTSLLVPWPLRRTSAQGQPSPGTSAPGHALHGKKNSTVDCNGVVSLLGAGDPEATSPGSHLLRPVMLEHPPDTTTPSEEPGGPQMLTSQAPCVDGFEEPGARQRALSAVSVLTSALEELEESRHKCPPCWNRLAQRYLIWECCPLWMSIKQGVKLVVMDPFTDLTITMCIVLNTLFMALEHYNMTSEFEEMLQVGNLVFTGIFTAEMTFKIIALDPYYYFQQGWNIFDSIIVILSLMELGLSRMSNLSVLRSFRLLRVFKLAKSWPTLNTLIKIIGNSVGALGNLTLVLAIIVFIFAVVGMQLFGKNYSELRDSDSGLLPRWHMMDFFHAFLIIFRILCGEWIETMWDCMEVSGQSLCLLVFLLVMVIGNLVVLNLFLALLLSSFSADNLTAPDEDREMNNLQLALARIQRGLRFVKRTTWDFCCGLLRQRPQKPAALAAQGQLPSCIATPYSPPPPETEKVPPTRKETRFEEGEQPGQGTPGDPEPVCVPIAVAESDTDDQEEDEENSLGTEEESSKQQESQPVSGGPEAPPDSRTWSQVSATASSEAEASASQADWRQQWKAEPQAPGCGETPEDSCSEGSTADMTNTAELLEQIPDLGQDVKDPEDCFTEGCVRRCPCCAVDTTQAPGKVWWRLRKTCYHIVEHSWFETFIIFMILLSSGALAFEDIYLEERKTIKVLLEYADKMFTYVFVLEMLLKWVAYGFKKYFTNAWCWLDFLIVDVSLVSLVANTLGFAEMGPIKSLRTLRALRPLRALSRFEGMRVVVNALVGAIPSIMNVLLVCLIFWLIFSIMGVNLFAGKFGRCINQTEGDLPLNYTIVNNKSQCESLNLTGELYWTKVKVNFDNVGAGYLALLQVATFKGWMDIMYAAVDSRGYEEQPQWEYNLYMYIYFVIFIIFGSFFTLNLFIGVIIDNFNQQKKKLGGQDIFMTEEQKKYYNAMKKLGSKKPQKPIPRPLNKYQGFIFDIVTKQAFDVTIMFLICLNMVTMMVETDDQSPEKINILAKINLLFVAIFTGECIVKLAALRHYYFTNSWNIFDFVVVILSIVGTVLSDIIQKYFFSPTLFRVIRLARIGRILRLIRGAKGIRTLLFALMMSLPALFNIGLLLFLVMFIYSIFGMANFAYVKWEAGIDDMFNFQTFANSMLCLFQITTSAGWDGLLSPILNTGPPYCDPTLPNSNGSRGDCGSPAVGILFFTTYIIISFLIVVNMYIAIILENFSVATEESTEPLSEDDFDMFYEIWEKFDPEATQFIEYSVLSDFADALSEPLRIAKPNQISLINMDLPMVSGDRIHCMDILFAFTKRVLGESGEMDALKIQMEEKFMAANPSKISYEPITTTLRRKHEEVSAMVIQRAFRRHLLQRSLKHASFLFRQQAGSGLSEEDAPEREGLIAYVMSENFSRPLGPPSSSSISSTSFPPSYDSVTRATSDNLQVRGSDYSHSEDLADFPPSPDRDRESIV

| IC50 [1] | SMILES | ratio of Nav1.7 potency:Nav 1.5 potency [2] |
| --- | --- | --- |
| 0.04 µM | O=S(=O)(Nc1nccs1)c1cc(Cl)c(NCCCCN[C@H]2CNC[C@@H]2O)cc1F [EX 2-38] |  |
| 0.015 µM | NCC(O)CNCCCCNc1cc(F)c(S(=O)(=O)Nc2ncc(F)s2)cc1Cl (single isomer, unassigned) [EX 2-17, 4-[(4-{[(2R or 2S)-3-amino-2-hydroxypropyl]amino}butyl)amino]-5-chloro-2-fluoro-N-(5-fluoro-1,3-thiazol-2-yl)benzenesulfonamide] |  |
| 0.019 µM | NCC[C@@H](CO)NCCCCNc1cc(F)c(S(=O)(=O)Nc2nccs2)cc1Cl [EX 2-32, 4-[(4-{[(1S)-3-amino-1-(hydroxymethyl)propyl]amino}butyl)amino]-5-chloro-2-fluoro-N-1,3-thiazol-2-ylbenzenesulfonamide] |  |
| 0.023 µM | O=S(=O)(Nc1ncns1)c1cc(Cl)c(NCCCCN[C@@H]2CNC[C@H]2O)cc1F [EX 2-2, 5-chloro-2-fluoro-4-[(4-{[(3R,4R)-4-hydroxypyrrolidin-3-yl]amino}butyl)amino]-N-1,2,4-thiadiazol-5-ylbenzenesulfonamide] |  |
| 0.035 µM | O=S(=O)(Nc1ncns1)c1cc(Cl)c(NCCCCNCCNCCO)cc1F [EX 2-4, 5-chloro-2-fluoro-4-{[4-({2-[(2-hydroxyethyl)amino]ethyl}amino)butyl]amino}-N-1,2,4-thiadiazol-5-ylbenzenesulfonamide] | ≥ 943 |
| 0.014 µM | O=S(=O)(Nc1ncc(F)s1)c1cc(Cl)c(NCCCCNCC2(O)CNC2)cc1F [EX 2-6, 5-chloro-2-fluoro-N-(5-fluoro-1,3-thiazol-2-yl)-4-[(4-{[(3-hydroxyazetidin-3-yl)methyl]amino}butyl)amino] benzenesulfonamide] | ≥ 2357 |
| 0.029 µM | O=S(=O)(Nc1ncc(F)s1)c1cc(Cl)c(NCCCCNCCNCCO)cc1F [EX 2-9, 5-chloro-2-fluoro-N-(5-fluoro-1,3-thiazol-2-yl)-4-{[4-({2-[(2-hydroxyethyl)amino]ethyl}amino)butyl]amino} benzenesulfonamide] | ≥ 1138 |
| 0.03 µM | O=S(=O)(Nc1nccs1)c1cc(Cl)c(NCCCCN[C@@H]2CNC[C@H]2O)cc1F [EX 2-31, 5-chloro-2-fluoro-4-[(4-{[(3R,4R)-4-hydroxypyrrolidin-3-yl]amino}butyl)amino]-N-1,3-thiazol-2-ylbenzenesulfonamide] |  |
| 0.018 µM | O=S(=O)(Nc1nccs1)c1cc(Cl)c(NCCCCNCC2(O)CNC2)cc1F [EX 2-28, 5-chloro-2-fluoro-4-[(4-{[(3-hydroxyazetidin-3-yl)methyl]amino}butyl)amino]-N-1,3-thiazol-2-ylbenzenesulfonamide] |  |
| 0.04 µM | O=S(=O)(Nc1ncc(F)s1)c1cc(Cl)c(NCCCCN[C@@H]2CNC[C@H]2O)cc1F [EX 2-20, 5-chloro-2-fluoro-N-(5-fluoro-1,3-thiazol-2-yl)-4-[(4-{[(3R,4R)-4-hydroxypyrrolidin-3-yl]amino}butyl)amino] benzenesulfonamide] |  |
| 0.018 µM | NCC[C@@H](CO)NCCCCNc1cc(F)c(S(=O)(=O)Nc2ncns2)cc1Cl [EX 2-34, 4-[(4-{[(1S)-3-amino-1-(hydroxymethyl)propyl]amino}butyl)amino]-5-chloro-2-fluoro-N-1,2,4-thiadiazol-5-ylbenzenesulfonamide] |  |
| 0.03 µM | O=S(=O)(Nc1ncc(F)s1)c1cc(Cl)c(NCCCCNC[C@H]2C[C@H](O)CN2)cc1F [EX 2-24, 5-chloro-2-fluoro-N-(5-fluoro-1,3-thiazol-2-yl)-4-{[4-({[(2R,4S)-4-hydroxypyrrolidin-2-yl]methyl}amino)butyl]amino} benzenesulfonamide] |  |
| 0.015 µM | NC[C@@H](CO)NCCCCNc1cc(F)c(S(=O)(=O)Nc2nccs2)cc1Cl [EX 2-35, 4-[(4-{[(1S)-2-amino-1-(hydroxymethyl)ethyl]amino}butyl)amino]-5-chloro-2-fluoro-N-1,3-thiazol-2-ylbenzenesulfonamide] |  |
| 0.017 µM | NC[C@@H](O)CNCCCCNc1cc(F)c(S(=O)(=O)Nc2ncns2)cc1Br [EX 1-8, 4-[(4-{[(2R)-3-amino-2-hydroxypropyl]-amino}-butyl)amino]-5-bromo-2-fluoro-N-1,2,4-thiadiazol-5-yl-benzenesulfonamide] |  |
| 0.02 µM | NCC1(O)CN(CCCCNc2cc(F)c(S(=O)(=O)Nc3ncc(F)s3)cc2Cl)C1 [EX 1-2, 4-({4-[3-(aminomethyl)-3-hydroxyazetidin-1-yl]butyl}amino)-5-chloro-2-fluoro-N-(5-fluoro-1,3-thiazol-2-yl)benzenesulfonamide] |  |
| 0.018 µM | NCC(O)CNCCCCNc1cc(F)c(S(=O)(=O)Nc2nccs2)cc1Cl (single isomer, unassigned) [EX 2-29, 4-[(4-{[(2R or 2S)-3-amino-2-hydroxypropyl]amino}butyl)amino]-5-chloro-2-fluoro-N-1,3-thiazol-2-ylbenzenesulfonamide] |  |
| 0.015 µM | O=S(=O)(Nc1ncns1)c1cc(Br)c(NCCCCN[C@H]2CNC[C@@H]2O)cc1F [EX 2-43, 5-bromo-2-fluoro-4-((4-(((3S,4S)-4-hydroxypyrrolidin-3-yl)amino)butyl)amino)-N-(1,2,4-thiadiazol-5-yl)benzenesulfonamide] |  |
| 0.019 µM | O=S(=O)(Nc1ncns1)c1cc(Br)c(NCCCCNCC2(O)CNC2)cc1F [EX 1-5, 5-bromo-2-fluoro-4-[(4-{[(3-hydroxyazetidin-3-yl)methyl]amino}butyl)amino]-N-1,2,4-thiadiazol-5-ylbenzenesulfonamide] |  |
| 0.05 µM | NC[C@H](CO)NCCCCNc1cc(F)c(S(=O)(=O)Nc2ncc(F)s2)cc1Cl [EX 2-40, 4-[(4-{[(1R)-2-amino-1-(hydroxymethyl)ethyl]amino}butyl)amino]-5-chloro-2-fluoro-N-(5-fluoro-1,3-thiazol-2-yl)benzenesulfonamide] |  |
| 0.015 µM | O=S(=O)(Nc1ncc(F)s1)c1cc(Br)c(NCCCCNCC2(O)CNC2)cc1F [EX 2-25, 5-bromo-2-fluoro-N-(5-fluoro-1,3-thiazol-2-yl)-4-[(4-{[(3-hydroxyazetidin-3-yl)methyl]amino}butyl)amino] benzenesulfonamide] |  |
| 0.017 µM | NCC(O)CNCCCCNc1cc(F)c(S(=O)(=O)Nc2nccs2)cc1Cl (single isomer, unassigned) [EX 2-30, 4-[(4-{[(2S or 2R)-3-amino-2-hydroxypropyl]amino}butyl)amino]-5-chloro-2-fluoro-N-1,3-thiazol-2-ylbenzenesulfonamide] |  |
| 0.023 µM | O=S(=O)(Nc1ncc(F)s1)c1cc(Cl)c(NCCCCNC[C@H]2C[C@@H](O)CN2)cc1F [EX 2-23, 5-chloro-2-fluoro-N-(5-fluoro-1,3-thiazol-2-yl)-4-{[4-({[(2R,4R)-4-hydroxypyrrolidin-2-yl]methyl}amino)butyl]amino} benzenesulfonamide] |  |
| 0.02 µM | NCC[C@@H](CO)NCCCCNc1cc(F)c(S(=O)(=O)Nc2ncc(F)s2)cc1Cl [EX 2-33, 4-[(4-{[(1S)-3-amino-1-(hydroxymethyl)propyl]amino}butyl)amino]-5-chloro-2-fluoro-N-(5-fluoro-1,3-thiazol-2-yl)benzenesulfonamide] |  |
| 0.015 µM | NC[C@@H](O)CNCCCCNc1cc(F)c(S(=O)(=O)Nc2ncns2)cc1Cl [EX 1-6, 4-[(4-{[(2R)-3-amino-2-hydroxypropyl]-amino}butyl)amino]-5-chloro-2-fluoro-N-1,2,4-thiadiazol-5-yl-benzenesulfonamide] |  |
